Experiments:
Experiment in all cases: relative viability (nuclei count vs DMSO), 5 days (fraction); higher = more cells survive
A-427 = test system: A-427
Procedure, shortened: (§1)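 Relative viability is defined as nuclei in treated wells over nuclei in vehicle wells. Duplicate plates were run and medians reported. Lung cancer cell lines in 1536-well plates were dosed by pin tool one day after seeding, with one drug or with a fixed anchor-drug dose plus five library-drug doses (not always all listed) in √10 steps, and nuclei were counted after 5 days.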

CAL-12T = test system: CAL-12T
Procedure, shortened: as §1

Calu-6 = test system: Calu-6
Procedure, shortened: as §1

EBC-1 = test system: EBC-1
Procedure, shortened: as §1

IA-LM = test system: IA-LM
Procedure, shortened: as §1

NCI-H1299 = test system: NCI-H1299
Procedure, shortened: as §1

NCI-H1651 = test system: NCI-H1651
Procedure, shortened: as §1

NCI-H1703 = test system: NCI-H1703
Procedure, shortened: as §1

NCI-H1755 = test system: NCI-H1755
Procedure, shortened: as §1

A549 = test system: A549
Procedure, shortened: as §1

LK-2 = test system: LK-2
Procedure, shortened: as §1

Cc1csc(=NC2CCCCC2)n1/N=C/c1ccc(O)c(O)c1O [MIM1] + CC(C)C[C@H](NC(=O)[C@H](Cc1ccccc1)NC(=O)c1cnccn1)B(O)O [Bortezomib] (partner 0.002 µM)
relative viability (A-427; first compound 0.2 µM): 0.975
relative viability (A-427; first compound 0.6325 µM): 0.865
relative viability (A-427; first compound 2 µM): 0.972
relative viability (A-427; first compound 6.325 µM): 0.847
relative viability (A-427; first compound 20 µM): 0.234
relative viability (CAL-12T; first compound 0.2 µM): 1.01
relative viability (CAL-12T; first compound 2 µM): 1.04
relative viability (CAL-12T; first compound 6.325 µM): 0.867
relative viability (CAL-12T; first compound 20 µM): 0.429
relative viability (Calu-6; first compound 0.2 µM): 1.05
relative viability (Calu-6; first compound 0.6325 µM): 1.1
relative viability (Calu-6; first compound 2 µM): 0.923
relative viability (Calu-6; first compound 6.325 µM): 0.289
relative viability (Calu-6; first compound 20 µM): 0.203
relative viability (EBC-1; first compound 0.2 µM): 0.496
relative viability (EBC-1; first compound 0.6325 µM): 0.569
relative viability (EBC-1; first compound 2 µM): 0.647
relative viability (EBC-1; first compound 6.325 µM): 0.324
relative viability (EBC-1; first compound 20 µM): 0.242
relative viability (IA-LM; first compound 0.2 µM): 0.754
relative viability (IA-LM; first compound 0.6325 µM): 0.792
relative viability (IA-LM; first compound 2 µM): 0.783
relative viability (IA-LM; first compound 6.325 µM): 0.275
relative viability (IA-LM; first compound 20 µM): 0.0874
relative viability (NCI-H1299; first compound 0.2 µM): 1.01
relative viability (NCI-H1299; first compound 0.6325 µM): 1.03
relative viability (NCI-H1299; first compound 2 µM): 0.999
relative viability (NCI-H1299; first compound 6.325 µM): 0.965
relative viability (NCI-H1299; first compound 20 µM): 0.994
relative viability (NCI-H1651; first compound 0.2 µM): 0.92
relative viability (NCI-H1651; first compound 0.6325 µM): 0.823
relative viability (NCI-H1651; first compound 2 µM): 0.875
relative viability (NCI-H1651; first compound 6.325 µM): 0.887
relative viability (NCI-H1651; first compound 20 µM): 0.685
relative viability (NCI-H1703; first compound 0.2 µM): 0.386
relative viability (NCI-H1703; first compound 0.6325 µM): 0.358
relative viability (NCI-H1703; first compound 2 µM): 0.318
relative viability (NCI-H1703; first compound 6.325 µM): 0.155
relative viability (NCI-H1703; first compound 20 µM): 0.133
relative viability (NCI-H1755; first compound 0.2 µM): 0.954
relative viability (NCI-H1755; first compound 0.6325 µM): 0.949
relative viability (NCI-H1755; first compound 2 µM): 0.893
relative viability (NCI-H1755; first compound 6.325 µM): 0.776
relative viability (NCI-H1755; first compound 20 µM): 0.377

Cc1cn(-c2cc(NC(=O)c3ccc(C)c(Nc4nccc(-c5cccnc5)n4)c3)cc(C(F)(F)F)c2)cn1 [Nilotinib] + Cc1nc(NC(=O)N2CCC[C@H]2C(N)=O)sc1-c1ccnc(C(C)(C)C(F)(F)F)c1 [Alpelisib] (partner 2 µM)
relative viability (A-427; first compound 0.001 µM): 1.07
relative viability (A-427; first compound 0.01 µM): 1.13
relative viability (A-427; first compound 0.03162 µM): 1.06
relative viability (A-427; first compound 0.1 µM): 0.808
relative viability (A549; first compound 0.001 µM): 0.721
relative viability (A549; first compound 0.003162 µM): 0.817
relative viability (A549; first compound 0.01 µM): 1.02
relative viability (A549; first compound 0.03162 µM): 0.543
relative viability (A549; first compound 0.1 µM): 0.649
relative viability (CAL-12T; first compound 0.003162 µM): 1.67
relative viability (CAL-12T; first compound 0.01 µM): 1.92
relative viability (CAL-12T; first compound 0.03162 µM): 0.653
relative viability (CAL-12T; first compound 0.1 µM): 1.22
relative viability (Calu-6; first compound 0.001 µM): 1.11
relative viability (Calu-6; first compound 0.01 µM): 1.03
relative viability (Calu-6; first compound 0.03162 µM): 0.989
relative viability (Calu-6; first compound 0.1 µM): 0.958
relative viability (EBC-1; first compound 0.001 µM): 0.787
relative viability (EBC-1; first compound 0.003162 µM): 0.796
relative viability (EBC-1; first compound 0.01 µM): 0.811
relative viability (EBC-1; first compound 0.03162 µM): 0.566
relative viability (EBC-1; first compound 0.1 µM): 0.689
relative viability (IA-LM; first compound 0.001 µM): 0.653
relative viability (IA-LM; first compound 0.003162 µM): 0.679
relative viability (IA-LM; first compound 0.01 µM): 0.781
relative viability (IA-LM; first compound 0.03162 µM): 0.606
relative viability (IA-LM; first compound 0.1 µM): 0.963
relative viability (LK-2; first compound 0.001 µM): 1.16
relative viability (LK-2; first compound 0.003162 µM): 0.966
relative viability (LK-2; first compound 0.03162 µM): 1
relative viability (LK-2; first compound 0.1 µM): 1.22
relative viability (NCI-H1651; first compound 0.001 µM): 0.915
relative viability (NCI-H1651; first compound 0.003162 µM): 1.15
relative viability (NCI-H1651; first compound 0.01 µM): 1.41
relative viability (NCI-H1651; first compound 0.03162 µM): 0.837
relative viability (NCI-H1651; first compound 0.1 µM): 0.978
relative viability (NCI-H1703; first compound 0.001 µM): 0.338
relative viability (NCI-H1703; first compound 0.003162 µM): 0.249
relative viability (NCI-H1703; first compound 0.01 µM): 0.171
relative viability (NCI-H1703; first compound 0.03162 µM): 0.166
relative viability (NCI-H1703; first compound 0.1 µM): 0.175
relative viability (NCI-H1755; first compound 0.001 µM): 0.862
relative viability (NCI-H1755; first compound 0.003162 µM): 1.13
relative viability (NCI-H1755; first compound 0.01 µM): 0.982
relative viability (NCI-H1755; first compound 0.03162 µM): 0.707
relative viability (NCI-H1755; first compound 0.1 µM): 0.785

From the supplement of paper PMC10307832
